Assay results published in paper PMC10153383, “Pharmacophore Variants of the Macrocyclic Peptide Triazole Inactivator of HIV-1 Env” (Research Square, 2023).
*1 amine or outer side, *2 acyl side, *3 side chain or, on linkers, in order; H or OH if unused. Where a SMILES comes first, the peptide text is derived from it. Bridges are numbered along the chain shown (N, C = ends). [ ]: non-standard residue; d: D form. X1 = O=C([C@@H]1C[C@H](n2cc(-c3ccc(-c4cccs4)cc3)nn2)CN1[*:1])[*:2]; Trp(5-Br) = N[C@@H](Cc1c[nH]c2ccc(Br)cc12)C(=O)O; Trp(1-Me) = Cn1cc(C[C@H](N)C(=O)O)c2ccccc21

Molecular target: T1, YU2 gp120 (Human immunodeficiency virus type 1 group M subtype B, UniProt P35961)
T1 construct: The DNA for gp120YU-2 in pcDNA3.1 vector for transient transfection; made in house; host or cells: HEK-293F
Format: binding, HIV-1
Text: A state-of-the-art Biacore S200 SPR optical biosensor, which can resolve dissociation rates of 0.1–1.0 s^−1, was employed to measure the YU2 gp120 binding kinetics of cPT’s. […] The insets in Fig. 3 show the binding isotherms plotted from the binding signals at steady state, as a function of peptide concentration. Reproducibility of the SPR binding assays was verified by running experiments at gp120 densities ranging from 10 to 29 RU/kDa. […] The calculated apparent (KD), the steady state affinities (eq KD) and experimental Rmax or maximum binding capacities for each gp120 surface are reported.
SPR experiments were performed on a Biacore S200 biosensor (Cytiva Global Life Sciences Solutions) at 25°C using PBS-P (10 mM Phosphate, 150 mM NaCl, pH 7.4, 0.005% P-20 and 2 or 5%DMSO) as the running and sample buffers. […] The 9 to 10 cPT concentrations were injected in duplicate spanning 1000-fold (~ 0.001 to 2.0 μM) at a flow rate of 75–100 μL/min where associations were monitored for 3 minutes and the final dissociation phase in running buffer monitored for 5 minutes for complete dissociation or by injecting two 9-second pulses of 10 mM glycine pH 2.0 to remove any bound analyte. […]

SMILES	increase in dissociation rate relative to parent peptide (SPR, MG-I-13 vs AAR029N2, MG-II-55 vs MG-II-20)	equilibrium binding isotherm KD, fold lower (affinity) versus AAR029N2 (SPR steady state isotherm, Fig. 3C inset)
CC[C@H](C)[C@@H]1NC(=O)[C@H](CC(N)=O)NC(=O)[C@@H](N)CC(=O)NCCCC[C@@H](C(N)=O)NC(=O)[C@H](Cc2c[nH]c3ccc(Br)cc23)NC(=O)[C@@H]2C[C@H](n3cc(-c4ccc(-c5cccs5)cc4)nn3)CN2C1=O [MG-I-13] (H-DNI[X1][Trp(5-Br)]K-NH2; lactam 1-6; N-terminus and C-terminus assumed)	2.5 fold	–
CC[C@H](C)[C@@H]1NC(=O)[C@H](CC(N)=O)NC(=O)[C@@H](N)CC(=O)NCCCC[C@@H](C(N)=O)NC(=O)[C@H](Cc2cn(C)c3ccccc23)NC(=O)[C@@H]2C[C@H](n3cc(-c4ccc(-c5cccs5)cc4)nn3)CN2C1=O [MG-II-39] (H-DNI[X1][Trp(1-Me)]K-NH2; lactam 1-6; N-terminus and C-terminus assumed)	–	5 fold
